Assay results taken from paper PMC6896485, “Aryl derivatives of 3H-1,2-benzoxathiepine 2,2-dioxide as carbonic anhydrase inhibitors” (Journal of Enzyme Inhibition and Medicinal Chemistry, 2019).
Like-named read-outs stand apart in the source and are kept apart here.

What was measured:
hCA IX = biological target: T1, hCA IX (Homo sapiens, UniProt Q16790); assay: stopped-flow CO2 hydration; format: biochemical; conditions: read-out: KI (nM) ^* / CA IX
T1 construct: gene CA9; recombinant, obtained in-house
Excerpt: stopped-flow CO2 hydration on hCA IX

hCA XII = biological target: T2, hCA XII (Homo sapiens, UniProt O43570); assay: stopped-flow CO2 hydration; format: biochemical; conditions: read-out: KI (nM) ^* / CA XII
T2 construct: gene CA12; recombinant, obtained in-house
Excerpt: (§1) stopped-flow CO2 hydration on hCA XII

[1] = stopped-flow CO2 hydration; format: biochemical, Homo sapiens; conditions: read-out: KI (nM) ^* / CA I
Excerpt: as §1

[2] = CO2 […], Hepes pH […] Na2SO4, […] h preincubation at room temperature

T2 sequence (O43570 25-354): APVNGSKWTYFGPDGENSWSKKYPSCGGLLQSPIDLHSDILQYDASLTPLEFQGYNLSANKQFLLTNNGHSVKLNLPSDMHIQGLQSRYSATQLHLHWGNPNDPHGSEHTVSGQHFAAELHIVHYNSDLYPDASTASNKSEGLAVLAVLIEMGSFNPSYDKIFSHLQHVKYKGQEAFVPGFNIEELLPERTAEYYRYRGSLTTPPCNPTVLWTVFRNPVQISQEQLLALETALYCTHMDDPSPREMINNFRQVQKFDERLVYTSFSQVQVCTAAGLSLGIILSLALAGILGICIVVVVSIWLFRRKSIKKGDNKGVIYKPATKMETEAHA

Structure (SMILES) | Ki (hCA IX) [nM] | Ki (hCA XII) [nM] | Ki (hCA XII; [2]) [nM] | Ki (hCA IX; [2]) [nM] | Ki [1] [nM]
O=S1(=O)CC=Cc2cc(I)ccc2O1 [compound 7, 7-Iodo-3H-1,2-benzoxathiepine 2,2-dioxide] | 66.2 | 455 | – | – | –
O=S1(=O)CC=Cc2cc(-c3ccccc3)ccc2O1 [compound 8, 7-Phenyl-3H-1,2-benzoxathiepine 2,2-dioxide] | 655 | 1380 | – | – | –
COc1ccc(-c2ccc3c(c2)C=CCS(=O)(=O)O3)cc1 [compound 9, 7–(4-Methoxyphenyl)-3H-1,2-benzoxathiepine 2,2-dioxide] | 408 | 2930 | – | – | –
O=S1(=O)CC=Cc2cc(-c3ccc(F)cc3)ccc2O1 [compound 10, 7–(4-Fluorophenyl)-3H-1,2-benzoxathiepine 2,2-dioxide] | 331 | 890 | – | – | –
O=S1(=O)CC=Cc2cc(-c3ccc(C(F)(F)F)cc3)ccc2O1 [compound 11, 7–(4-(Trifluoromethyl)phenyl)-3H-1,2-benzoxathiepine 2,2-dioxide] | 221 | 4020 | – | – | –
CCOC(=O)c1ccc(-c2ccc3c(c2)C=CCS(=O)(=O)O3)cc1 [compound 12, 7–(4-(Ethoxycarbonyl)phenyl)-3H-1,2-benzoxathiepine 2,2-dioxide] | 621 | 2400 | – | – | –
O=S1(=O)CC=Cc2ccc(Br)cc2O1 [compound 20, 8-Bromo-3H-1,2-benzoxathiepine 2,2-dioxide] | 47.5 | 133 | – | – | –
O=S1(=O)CC=Cc2ccc(-c3ccccc3)cc2O1 [compound 21, 8-Phenyl-3H-1,2-benzoxathiepine 2,2-dioxide] | 105 | 473 | – | – | –
COc1ccc(-c2ccc3c(c2)OS(=O)(=O)CC=C3)cc1 [compound 22, 8–(4-Methoxyphenyl)-3H-1,2-benzoxathiepine 2,2-dioxide] | 63.1 | 169 | – | – | –
O=S1(=O)CC=Cc2ccc(-c3ccc(F)cc3)cc2O1 [compound 23, 8–(4-Fluorophenyl)-3H-1,2-benzoxathiepine 2,2-dioxide] | 95.2 | – | 77.9 | – | –
O=S1(=O)CC=Cc2ccc(-c3ccc(C(F)(F)F)cc3)cc2O1 [compound 24, 8–(4-(Trifluoromethyl)phenyl)-3H-1,2-benzoxathiepine 2,2-dioxide] | – | 248 | – | 44 | –
CCOC(=O)c1ccc(-c2ccc3c(c2)OS(=O)(=O)CC=C3)cc1 [compound 25, 8–(4-(Ethoxycarbonyl)phenyl)-3H-1,2-benzoxathiepine 2,2-dioxide] | 79.8 | 289 | – | – | –
O=S1(=O)CC=Cc2cccc(Br)c2O1 [compound 29, 9-Bromo-3H-1,2-benzoxathiepine 2,2-dioxide] | 755 | 3820 | – | – | –
O=S1(=O)CC=Cc2cccc(-c3ccccc3)c2O1 [compound 30, 9-Phenyl-3H-1,2-benzoxathiepine 2,2-dioxide] | 21100 | – | – | – | > 100000
COc1ccc(-c2cccc3c2OS(=O)(=O)CC=C3)cc1 [compound 31, 9–(4-Methoxyphenyl)-3H-1,2-benzoxathiepine 2,2-dioxide] | 60900 | – | – | – | > 100000
O=S1(=O)CC=Cc2cccc(-c3ccc(F)cc3)c2O1 [compound 32, 9–(4-Fluorophenyl)-3H-1,2-benzoxathiepine 2,2-dioxide] | 33700 | – | – | – | > 100000
O=S1(=O)CC=Cc2cccc(-c3ccc(C(F)(F)F)cc3)c2O1 [compound 33, 9–(4-(Trifluoromethyl)phenyl)-3H-1,2-benzoxathiepine 2,2-dioxide] | 47100 | – | – | – | > 100000
CCOC(=O)c1ccc(-c2cccc3c2OS(=O)(=O)CC=C3)cc1 [compound 34, 9–(4-(Ethoxycarbonyl)phenyl)-3H-1,2-benzoxathiepine 2,2-dioxide] | 16400 | – | – | – | > 100000
